This passage reports T/C results from PubChem BioAssay AID248 (DTP/NCI, 2004).

Values joined by “and” are separate entries in the source; they are usually repeats but may differ in a detail not shown here. Equal values may be shown once. Inconclusive results and toxic doses are left out.

The assay deals with L1210 leukemia ip in BDF1 mice, survival T/C. Nature of the assay: NCI In Vivo Anticancer Drug Screen. Data for tumor model L1210 Leukemia (intraperitoneal) in B6D2F1 (BDF1) mice. The conditions noted are these: endpoint: mean survival time, higher = longer survival. Put shortly:
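In this screen, tumor-bearing mice given compound are compared to those given vehicle, and their survival values are reported as a treated-to-control quotient.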

Where [1] appears, read: dose: 100.0 mg/kg/injection, schedule: Q01DX009 (ip), vehicle: saline with Tween-80.
The mark [2] stands for this setting: dose: 200.0 mg/kg/injection, schedule: Q01DX009 (ip), vehicle: saline with Tween-80.
Where [3] appears, read: dose: 400.0 mg/kg/injection, schedule: Q01DX009 (ip), vehicle: saline with Tween-80.
The mark [4] stands for this setting: dose: 100.0 mg/kg/injection, schedule: Q01DX009 (ip), vehicle: Klucel (hydroxypropylcellulose) (HPC).
Where [5] appears, read: dose: 100.0 mg/kg/injection, schedule: Q04DX003 (ip), vehicle: Klucel (hydroxypropylcellulose) (HPC).
[6] abbreviates: dose: 200.0 mg/kg/injection, schedule: Q01DX009 (ip), vehicle: Klucel (hydroxypropylcellulose) (HPC).
Setting [7] is: dose: 200.0 mg/kg/injection, schedule: Q04DX003 (ip), vehicle: Klucel (hydroxypropylcellulose) (HPC).
Where [8] appears, read: dose: 100.0 mg/kg/injection, schedule: Q04DX002 (ip), vehicle: gum acacia.
Where [9] appears, read: dose: 200.0 mg/kg/injection, schedule: Q04DX002 (ip), vehicle: gum acacia.
Setting [10] is: dose: 50.0 mg/kg/injection, schedule: Q01DX009 (ip), vehicle: Klucel (hydroxypropylcellulose) (HPC).
[11] abbreviates: dose: 100.0 mg/kg/injection, schedule: Q04DX002 (ip), vehicle: Klucel (hydroxypropylcellulose) (HPC).
[12] abbreviates: dose: 200.0 mg/kg/injection, schedule: Q04DX002 (ip), vehicle: Klucel (hydroxypropylcellulose) (HPC).
The mark [13] stands for this setting: dose: 100.0 mg/kg/injection, schedule: Q01DX001 (ip), vehicle: saline with Tween-80.
Where [14] appears, read: dose: 200.0 mg/kg/injection, schedule: Q01DX001 (ip), vehicle: saline with Tween-80.
The mark [15] stands for this setting: dose: 400.0 mg/kg/injection, schedule: Q01DX001 (ip), vehicle: saline with Tween-80.
Setting [16] is: dose: 100.0 mg/kg/injection, schedule: Q01DX001 (ip), vehicle: saline.
[17] abbreviates: dose: 200.0 mg/kg/injection, schedule: Q01DX001 (ip), vehicle: saline.
Where [18] appears, read: dose: 400.0 mg/kg/injection, schedule: Q01DX001 (ip), vehicle: saline.

On to `NC(=O)C[CH2][Sn]([c]1ccccc1)([c]1ccccc1)[c]1ccccc1`, for which the T/C is 101 % of control (dose: 50.0 mg/kg/injection, schedule: Q01DX009 (ip), vehicle: saline with Tween-80) and 112 % of control under setting [1].

On to `COc1c(NC(=O)COc2ccc(Cl)cc2)cccc1[N+](=O)[O-]`, for which the T/C under setting [1] is 96 % of control, the T/C under setting [2] was 100 % of control and the T/C under setting [3] is 94 % of control.

On to `CCC1(c2ccccc2)NC(=O)N(C)C1=O` (stereo not given), for which the T/C reads like this: under setting [4], 97 % of control; under setting [5], 100 % of control; under setting [6], 110 % of control; under setting [7], 95 % of control; (dose: 400.0 mg/kg/injection, schedule: Q04DX003 (ip), vehicle: Klucel (hydroxypropylcellulose) (HPC)) 90 % of control.

Take `Cc1cccnc1NC(=S)Nc1ccccc1Cl`: the T/C was 88 % of control under setting [8] and 98 % of control under setting [9].

As to `O=C(COc1cc(Cl)c(Cl)cc1Cl)NO`, the T/C was 98 % of control under setting [10]; 104 % of control under setting [4]; 101 % of control under setting [5]; 112 % of control under setting [6]; 101 % of control under setting [7].

`CS(=O)(=O)c1nc2ccccc2[nH]1`: the T/C under setting [11] is 105 % of control and the T/C under setting [12] was 97 % of control.

Turning to `O=P(O)(O)CO`, the T/C by setting is: (dose: 100.0 mg/kg/injection, schedule: Q04DX002 (ip), vehicle: saline) 97 % of control and 87 % of control; (dose: 200.0 mg/kg/injection, schedule: Q04DX002 (ip), vehicle: saline) 86 % of control.

Take `CCOC(=O)c1ccc(NCc2nnc3nc(N)nc(SCc4ccccc4)c3n2)cc1`: the T/C reads like this: under setting [13], 96 % of control; under setting [14], 98 % of control; under setting [15], 92 % of control.

For the compound `ClCCNCc1cccc(Nc2ccnc3cc(Cl)ccc23)c1`, the T/C by setting is: (dose: 75.0 mg/kg/injection, schedule: Q01DX001 (ip), vehicle: carboxymethylcellulose (CMC)) 103 % of control; (dose: 150.0 mg/kg/injection, schedule: Q01DX001 (ip), vehicle: carboxymethylcellulose (CMC)) 95 % of control.

Regarding `COC(=O)/C=C/c1cccc([N+](=O)[O-])c1`, the T/C under setting [16] is 100 % of control, the T/C under setting [17] is 100 % of control and the T/C under setting [18] is 100 % of control.

With `NC(=O)c1cc([N+](=O)[O-])c(N)c([N+](=O)[O-])c1`, the T/C under setting [13] was 100 % of control, the T/C under setting [14] was 95 % of control and the T/C under setting [15] was 100 % of control.

Take `CN(C)C1CCC(N=Nc2cc([N+](=O)[O-])ccc2C(=O)O)CC1` (stereo not given): the T/C reads like this: (dose: 75.0 mg/kg/injection, schedule: Q01DX001 (ip), vehicle: acetone) 105 % of control; (dose: 150.0 mg/kg/injection, schedule: Q01DX001 (ip), vehicle: acetone) 97 % of control; (dose: 300.0 mg/kg/injection, schedule: Q01DX001 (ip), vehicle: acetone) 90 % of control.

As for `C=CCc1ccc(OCCOCCN(C/C=C(\C)CCC=C(C)C)C/C=C(\C)CCC=C(C)C)c(OC)c1`, the T/C by setting is: (dose: 25.0 mg/kg/injection, schedule: Q04DX002 (ip), vehicle: Klucel (hydroxypropylcellulose) (HPC)) 108 % of control; (dose: 50.0 mg/kg/injection, schedule: Q04DX002 (ip), vehicle: Klucel (hydroxypropylcellulose) (HPC)) 96 % of control; under setting [11], 99 % of control.

As for `CC(C)(CCC#N)C1OCCO1`, the T/C reads like this: (dose: 100.0 mg/kg/injection, schedule: Q01DX009 (ip), vehicle: saline) 106 % of control; (dose: 100.0 mg/kg/injection, schedule: Q04DX003 (ip), vehicle: saline) 98 % of control; (dose: 200.0 mg/kg/injection, schedule: Q01DX009 (ip), vehicle: saline) 102 % of control; (dose: 200.0 mg/kg/injection, schedule: Q04DX003 (ip), vehicle: saline) 105 % of control; (dose: 400.0 mg/kg/injection, schedule: Q01DX009 (ip), vehicle: saline) 102 % of control; (dose: 400.0 mg/kg/injection, schedule: Q04DX003 (ip), vehicle: saline) 96 % of control.

`FC(F)(F)c1ccc2c(c1)N(CCCN1CCN(CCN3CCOCC3)CC1)c1ccccc1S2`: the T/C was 100 % of control (dose: 0.78 mg/kg/injection, schedule: Q01DX009 (ip), vehicle: saline); 106 % of control (dose: 1.56 mg/kg/injection, schedule: Q01DX009 (ip), vehicle: saline); 95 % of control (dose: 3.12 mg/kg/injection, schedule: Q01DX009 (ip), vehicle: saline); 108 % of control (dose: 12.5 mg/kg/injection, schedule: Q04DX003 (ip), vehicle: saline); 116 % of control (dose: 25.0 mg/kg/injection, schedule: Q04DX003 (ip), vehicle: saline).

As for `CCOc1ccccc1NCN1C(=O)c2ccccc2C1=O`, the T/C was 90 % of control under setting [1]; 223 % of control (dose: 200.0 mg/kg/injection, schedule: Q04DX002 (ip), vehicle: saline with Tween-80); 91 % of control (dose: 400.0 mg/kg/injection, schedule: Q04DX002 (ip), vehicle: saline with Tween-80).

`C/C(=N\N=C(/C)c1ccccc1O)c1ccccc1O`: the T/C is, setting by setting: under setting [8], 96 % of control; under setting [9], 93 % of control; (dose: 400.0 mg/kg/injection, schedule: Q04DX002 (ip), vehicle: gum acacia) 101 % of control.

On to `O=C(Nc1ccc(S(=O)(=O)F)cc1)/C(=C\c1ccc([N+](=O)[O-])cc1)c1cccc(Cl)c1`, for which the T/C was 94 % of control under setting [11]; 105 % of control under setting [12]; 105 % of control (dose: 400.0 mg/kg/injection, schedule: Q04DX002 (ip), vehicle: Klucel (hydroxypropylcellulose) (HPC)).

Consider `Cc1nc(OCc2ccccc2)c(C(=O)OCc2ccccc2)nc1C`, for which the T/C is 103 % of control under setting [1]; 101 % of control (dose: 100.0 mg/kg/injection, schedule: Q04DX003 (ip), vehicle: saline with Tween-80); 97 % of control under setting [2]; 102 % of control (dose: 200.0 mg/kg/injection, schedule: Q04DX003 (ip), vehicle: saline with Tween-80); 101 % of control under setting [3]; 98 % of control (dose: 400.0 mg/kg/injection, schedule: Q04DX003 (ip), vehicle: saline with Tween-80).

With `C/C(N=Nc1ccc([N+](=O)[O-])cc1)=N\Nc1ccccc1`, the T/C runs as follows: under setting [10], 102 % of control; under setting [4], 107 % of control; under setting [6], 112 % of control; (dose: 400.0 mg/kg/injection, schedule: Q01DX009 (ip), vehicle: Klucel (hydroxypropylcellulose) (HPC)) 97 % of control.

As for `OC1COC(n2cnc3c(=S)nc[nH]c32)C(O)C1O` (stereo not given), the T/C (dose: 5.0 mg/kg/injection, schedule: Q01DX001 (ip), vehicle: saline) is 98 % of control; the T/C (dose: 10.0 mg/kg/injection, schedule: Q01DX001 (ip), vehicle: saline) was 102 % of control; the T/C (dose: 20.0 mg/kg/injection, schedule: Q01DX001 (ip), vehicle: saline) was 98 % of control; the T/C (dose: 40.0 mg/kg/injection, schedule: Q01DX001 (ip), vehicle: saline) is 96 % of control; the T/C (dose: 50.0 mg/kg/injection, schedule: Q01DX001 (ip), vehicle: saline) was 115 % of control; the T/C (dose: 80.0 mg/kg/injection, schedule: Q01DX001 (ip), vehicle: saline) was 98 % of control. Further, the T/C is, setting by setting: under setting [16], 105 % of control and 100 % of control; under setting [17], 111 % of control and 100 % of control and 101 % of control; under setting [18], 101 % of control and 103 % of control.

With `Cn1c(=O)n(O)c(=O)c2ccccc21`, the T/C runs as follows: (dose: 50.0 mg/kg/injection, schedule: Q01DX001 (ip), vehicle: saline with Tween-80) 96 % of control; under setting [13], 109 % of control; under setting [14], 91 % of control.
